The source of these data is patent publication US4435393A, “Derivatives of 10-(1-azabicyclo[2.2.2]oct-3-yl)-N,N dimethyl-10H-phenothiazine-2-sulfonamide as medicaments” (Pharmindustrie, priority 1981, dated 1984).

For the test, the system named is gastric hypersecretion stimulated by pentagastrine. Kind of test: antisecretory activity on gastric hypersecretion stimulated by pentagastrine in dogs wearing a Heidenhain pouch. It counts as in vivo, dog (mongrel). Conditions: for ED50: Canis lupus familiaris, read-out: ED 50 (dose which reduced by 50% the hourly acid flow). The protocol:
Three mongrel dogs wearing Heidenhain pouches and which were kept without food for 18 hours received a venous perfusion of […] of pentagastrine per hour in a volume of 30 mls per hour for 4 hours. The secretion from the pouch was collected in a flask which was changed every 15 minutes. An hour and a half after the beginning of the perfusion process, the product to be examined was administered orally in a No. 000 gelatin coated pill. […] The doses are expressed in the product in the base form.

Where [1] appears, read: oral, Heidenhain pouch dogs, pentagastrine perfusion, acid flow at 3rd or 4th hour vs second hour, doses expressed as base.

Where two headings read alike, the source gives them in different places.

Regarding `CN(C)S(=O)(=O)c1ccc2c(c1)N(C1CN3CCC1CC3)c1ccccc1[S+]2[O-]` (single isomer, unassigned) [Example 2, 10-(1-azabicyclo[2.2.2]oct-3-yl)-N,N dimethyl-10H-phenothiazine-2-sulfonamide S-oxide], the ED50 under setting [1] came out at 2.5 mg/kg. The “inhibition of gastric secretion relative to Cimetidine” value (oral, Heidenhain pouch dogs) was “as active as Cimetidine”.
On to `CN/C(=N/CCSCc1nc[nH]c1C)NC#N` [Cimetidine, reference compound], for which the ED50 (po) came to 2.3 mg/kg.
`CN(C)S(=O)(=O)c1ccc2c(c1)N(C1CN3CCC1CC3)c1ccccc1[S+]2[O-]` (stereo not drawn) [Example 1, 10-(1-azabicyclo[2.2.2]oct-3-yl)-N,N dimethyl-10H-phenothiaxine-2-sulfonamide S-oxide]: under setting [1], the ED50 amounted to 2.3 mg/kg. In addition, for the setting “oral, Heidenhain pouch dogs”, the “inhibition of gastric secretion relative to Cimetidine” value is recorded as “as active as Cimetidine”.
For `CN(C)S(=O)(=O)c1ccc2c(c1)N(C1CN3CCC1CC3)c1ccccc1S2(=O)=O` (stereo not drawn) [Example 3, 10-(1-azabicyclo[2.2.2]oct-3-yl)-N,N dimethyl-10H-phenothiazine-2 sulfonamide S-dioxide], under setting [1], the ED50 was determined as 10 mg/kg.
